{
  "source": "patent US20220280425A1",
  "about": "“FLAVONOIDS AND LINOLEIC ACID USES IN HYPERTENSION” (King Abdulaziz University, priority 2021, published 2022)",
  "key": {"[1]": {"test_system": "angiotensin model of hypertensive rats", "assay": "Invasive blood pressure recording in angiotensin II acute hypertension model", "assay_type": "in vivo, male Wistar rats", "settings": "for anti-hypertensive effect: current study, IV SNEDDS formulation, angiotensin II infused rats", "procedure": "(§1) Six-week-old male Wistar rats with a weight of (250-275 g) were obtained from Zagazig University. They were kept in clear cages made of polypropylene and with good ventilation (3-4 rats in each cage), under constant environmental conditions of 22±2° C. temperature, 50-60% relative humidity and 12-h day and night cycle. Unlimited rodent pellet food and purified water were provided to the rats. The experimental design and animal handling procedures were as indicated by the guidelines of the Ethical Committee for Animal Handling at Zagazig University.\nThe blood pressure was recorded invasively in real. The rats were subjected to anesthesia with single intraperitoneal injection of 100 mg/kg ketamine and 10 mg/kg xylazine. Animals' body temperature was held at 37° C. by means of a rectal probe and automated heating pads. A micro-tip pressure volume catheter (PV catheter, SPR-901, Millar Instruments, Houston, Tex., USA) was inserted via a small opening into the right carotid artery. This instrument can continuously monitor the arterial pressure. The micro-tip catheter was linked via a Power Lab Data Interface to a computer running the Lab Chart professional software (v8.0, AD Instruments, Bella Vista, Australia) incorporating blood pressure (BP) module. Following a stabilization time of 5 min, readings were continuously recorded. The BP module was employed to monitor the systolic and diastolic blood pressure.\n(§2) After 10 min (stabilization period) of basal recording of invasive blood pressure and ECG, angiotensin II (120 ng/min/kg) was slowly infused through the femoral vein using syringe pump and continued throughout the experiment duration.\n(§3) Invasive blood hemodynamics and ECG were continuously recorded throughout the experiment. Saline (0.3 ml) was injected in time control experiments.\n(§4) Values of the present study presented in form of mean ±SEM. Statistical analysis was carried out using the Prism 5 computer program (Graph Pad, USA). Statistical comparison was done using repeated measures Two way analysis of variance (ANOVA) followed by Bonferroni' post-hoc test of baseline-corrected data and P<0.05 was considered significant."}, "[2]": {"settings": "previous report; cited from earlier work"}, "[3]": {"test_system": "angiotensin model of hypertensive rats", "assay": "Electrocardiogram (ECG) recording in angiotensin II acute hypertension model", "assay_type": "in vivo, male Wistar rats", "settings": "IV formulation", "procedure": "as §1\nA Powerlab® system (AD Instruments, Bella Vista, Australia) linked to a computer running the LabChart professional software with the ECG module was employed to record the standard surface ECG according to the methodology outlined in a previous report by our group. The ECG module quantitatively assesses the various elements of the ECG.\nas §2, §3, §4"}, "[4]": {"settings": "IV formulation, 10 min after doses 24 and 36 μg/kg, vs vehicle group, p<0.05"}, "[5]": {"settings": "dose 36 μg/kg, vs vehicle group, p<0.05"}},
  "data": [
    {"smiles": "COc1ccc(-c2cc(=O)c3c(O)cc(O)cc3o2)cc1OC", "note": "[Compound 4, luteolin-3′,4′ -dimethyl ether]", "values": [
      {"measurement": "anti-hypertensive effect", "setting": "[1]", "value": "lack of antihypertensive efficacy"},
      {"measurement": "vasodilation activity", "setting": "[2]", "value": "significant vasodilation activity"}
    ]},
    {"smiles": "COc1cc(-c2cc(=O)c3c(O)c(OC)c(OC)cc3o2)cc(OC)c1OC", "note": "[Compound 1, umuhengerin]", "values": [
      {"measurement": "reflex tachycardia", "setting": "[1]; IV SNEDDS containing 10% linoleic acid", "value": "without reflex tachycardia"},
      {"measurement": "dicrotic notch pressure", "setting": "[1]; [4]", "value": "significant reduction"},
      {"measurement": "pulse pressure", "setting": "[1]; [4]", "value": "significant reduction"},
      {"measurement": "non-ejection duration", "setting": "[1]; IV formulation, dose 36 μg/kg, vs vehicle group", "value": "significant increase"},
      {"measurement": "SDP difference (systolic blood pressure-dicrotic notch pressure difference)", "setting": "[1]; IV formulation, doses 12, 24 and 36 μg/kg, vs vehicle group, p<0.05", "value": "significant reduction"},
      {"measurement": "ejection duration", "setting": "[1]; IV formulation, doses 24 and 36 μg/kg, vs vehicle group", "value": "significant decrease"},
      {"measurement": "time to peak", "setting": "[1]; IV formulation, vs vehicle group", "value": "no change"},
      {"measurement": "systolic blood pressure", "setting": "[1]; IV linoleic acid SNEDDS formulation, 12, 24 and 36 μg/kg, 10 min after each dose, p<0.05", "value": "gradual dose dependent reduction"},
      {"measurement": "diastolic blood pressure", "setting": "[1]; IV linoleic acid SNEDDS formulation, significant at 24 and 36 μg/kg vs plain IV formulation, p<0.05", "value": "gradual and reached a plateau with statistical significance"},
      {"measurement": "anti-hypertensive effect", "setting": "[1]", "value": "observed"},
      {"measurement": "heart rate", "setting": "[1]; medicated IV formulation compared with the plain IV formulation", "value": "did not produced any further effect"},
      {"measurement": "JT interval", "setting": "[3]; 12, 24, 36 μg/kg", "value": "no significant effect"},
      {"measurement": "P-wave duration", "setting": "[3]; 12, 24, 36 μg/kg", "value": "did not affect"},
      {"measurement": "PR interval", "setting": "[3]; 12, 24, 36 μg/kg", "value": "did not affect"},
      {"measurement": "QTc interval", "setting": "[3]; 12, 24, 36 μg/kg", "value": "no significant effect"},
      {"measurement": "R wave amplitude", "setting": "[3]; [5]", "value": "significant decrease"},
      {"measurement": "T wave amplitude", "setting": "[3]; [5]", "value": "increase"},
      {"measurement": "vasodilation activity", "setting": "[2]", "value": "significant vasodilation activity"}
    ]}
  ]
}
